Experimental data reported in patent US20210236512A1 (ZARODEX THERAPEUTICS LIMITED, priority 2018, published 2021).
“And” between values parts separate entries of the source, which are not always exact repeats. Identical values can stand only once. “Also recorded” adds a separate entry of the source. Like-named read-outs stand apart in the source and are kept apart here.

Experiments:
[1] = test system: Specific antibody titres against Haemophilus influenzae, Tetanus and Pneumococcal capsular polysaccharide; parameters: species or system human; details: in vivo
[2] = First observational study: infection questionnaire, antibiotic courses and hospital admission rates; type: in vivo, human
[3] = test system: B cell subsets in bone marrow; assay: Wild type mouse study: bone marrow B cell immunophenotyping by flow cytometry
[4] = in vivo; cited from earlier work
[5] = test system: class switched memory B cells (CSMB), plasmablasts and other B cell subsets; details: for CSMB after clozapine stopped: one patient, after 24 months
[6] = test system: Immunoglobulins (IgG, IgA, IgM); assay: Immunological assessment of referred patients taking clozapine: serum immunoglobulins; type: in vivo, human; details: for Serum IgG after clozapine stopped: 24 months after discontinuation; for Serum IgG at discontinuation of clozapine: starting value before recovery;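 as to Serum IgA, individual referred patient: serum IgA in g/L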;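 as to Serum IgG at discontinuation of clozapine: serum IgG in g/L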;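 as to Serum IgG, individual referred patient: serum IgG in g/L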;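 as to Serum IgM, individual referred patient: serum IgM in g/L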
[7] = Michel. L. et al., 2015; cited from earlier work
[8] = test system: serum/plasma IgG, IgA, IgM; details: cited from earlier work
[9] = one line per patient of Table 3
[10] = clozapine treatment for six weeks (Hinze-Selch et al., 1998)

CN1CCN(C2=Nc3cc(Cl)ccc3Nc3ccccc32)CC1 [Clozapine, clozapine]
IgG-Haemophilus B <1.0 mcg/ml, percentage of patients [1]: 51% and 51.2% and 51.1% and 49.4% and 50.9%
IgG-Pneumococcus <35 mg/L, percentage of patients [1]: 39.0% and 38.3% and 37.9% and 45.6%
IgG-Pneumococcus <50 mg/L, percentage of patients [1]: 52.1% and 50.6% and 54.4%
IgG-Tetanus <0.1 IU/ml, percentage of patients [1]: 10.6% and 11.5% and 12.3%
IgM-Pneumococcus, mean [1]: 58.5 U/L and 59.8 U/L and 60.4 U/L and 61.6 U/L
Pneumococcal IgM level [1]: 58.5 U/ml
Admitted to hospital with infection ([2]; clozapine group (vs 0.06 in controls)): 0.12 per patient year
Admission frequency in 12-month period, all cause: patients admitted ([2]; clozapine-treated patients): 14 patients
Admission frequency in 12-month period, infection-related: admissions ([2]; clozapine-treated patients): 15
Admission frequency in 12-month period, infection-related: patients admitted ([2]; clozapine-treated patients): 10 patients
Antibiotic courses per year: 1-5 courses, percentage of patients ([2]; clozapine-treated patients): 33.0%
Antibiotic courses per year: >5 courses, percentage of patients ([2]; clozapine-treated patients): 5.3%
Antibiotic courses per year: nil courses, percentage of patients ([2]; clozapine-treated patients): 61.7%
Antibiotic courses per year: >5 courses, percentage of patients ([2]; clozapine-treated patients, listed as clozapine): 5.3%
Pro-B cell fraction in bone marrow ([3]; 10 mg/kg IP, 21 days): without any change
Proportion of pre-pro B cells in bone marrow ([3]; 10 mg/kg IP, 21 days): significant increase
Reduction in the percentage of long-lived plasma cells in the bone marrow compared to control ([3]; 5 and 10 mg/kg IP, 21 days, significant): ~30%
B cells in the bone marrow (BM), overall ([3]; any dose of clozapine (2.5, 5, 10 mg/kg IP, 21 days)): No overall reduction
Percentage of immature B cells in bone marrow ([3]; clozapine IP, 21 days): reduction
Pre-B cells in bone marrow ([3]; dose-dependent, significant vs control even at 2.5 mg/kg): reduction
Percentage of pre-B cells that were proliferating ([3]; reaching significance for the 5 mg/kg dose): diminished
LD50 [4]: 200 mg/kg
Marginal zone B cell numbers vs healthy control ([5]; FIG. 3B): no significant difference
Total B cell numbers vs CVID and healthy controls ([5]; FIG. 3B): similar
CSMB (reference range 6.5-29.1%), individual referred patient ([5]; class switched memory B cells as % of total CD19+ cells, one line per patient of Table 3, listed as clozapine): 1.58%
Overall lymphopenia or B cell lymphopenia ([5]; human, in vivo): no severe overall lymphopenia or B cell lymphopenia
CSMB after clozapine stopped [5]: CSM Brose to 2.77%
CSMB after clozapine stopped ([5]; listed as clozapine): 2.77%
Mean CSMB (reference range 6.5-29.1%) ([5]; referred clozapine-treated patients, p<0.0001 vs healthy controls): 1.87%
Serum IgA and IgM following cessation of clozapine ([6]; FIG. 5 / one patient over 24 months): without clear improvement; also recorded: remained low
Serum IgA, individual referred patient [6, 9]: IgA 0.54 g/L; also recorded: IgA < 0.22 g/L; also recorded: IgA 0.49 g/L; also recorded: IgA 0.38 g/L; also recorded: undetectable; also recorded: IgA 0.26 g/L; also recorded: IgA 0.81 g/L; also recorded: IgA 0.63 g/L
Serum IgM, individual referred patient [6, 9]: IgM 0.3 g/L; also recorded: IgM < 0.17 g/L; also recorded: IgM 0.41 g/L; also recorded: IgM 0.23 g/L; also recorded: IgM 0.07 g/L; also recorded: IgM 0.18 g/L
Serum IgG, individual referred patient ([6]; one line per patient of Table 3 (clozapine dose and duration differ)): IgG 4.8 g/L; also recorded: IgG < 1.34 g/L; also recorded: IgG 5.24 g/L; also recorded: IgG 2.68 g/L; also recorded: IgG 2.98 g/L; also recorded: IgG 1.2 g/L; also recorded: IgG 3.3 g/L; also recorded: IgG 2.38 g/L; also recorded: IgG 4.24 g/L; also recorded: IgG 6.65 g/L; also recorded: IgG 5.61 g/L; also recorded: IgG 4.79 g/L
Serum IgG after clozapine stopped ([6]; one patient): IgG rose to 5.95 from g/L
Serum IgG after clozapine stopped ([6]; one patient, listed as clozapine): 5.95 g/L
Serum IgA after clozapine stopped ([6]; one patient, after 24 months): 0.29
Serum IgM after clozapine stopped ([6]; one patient, after 24 months): 0.49 after 24 months
Serum IgG after clozapine stopped, intermediate value ([6]; one patient, within the 24 months after discontinuation): 4.8 g/L
Serum IgG post-discontinuation of clozapine ([6]; over three years (FIG. 5)): 5.95 g/L
Mean serum IgA ([6]; referred patients on clozapine): 0.34 g/L
Mean serum IgG ([6]; referred patients on clozapine): 3.6 g/L
Mean serum IgM ([6]; referred patients on clozapine): 0.21 g/L
Serum IgG at discontinuation of clozapine [6]: 3.3 g/L
Serum IgG at discontinuation of clozapine ([6]; listed as clozapine): 3.5 g/L and 3.3 g/L
CNS penetration [7]: high levels of CNS penetration
IgA, IgG, absolute neutrophil count and white blood cell count vs control group ([8]; Lozano et al., 2016): no differences
IgA or IgM concentrations or pattern of autoantibodies [8, 10]: no significant effect
Serum concentrations of IgG [8, 10]: significant increases
Mean plasma levels of IgM vs control group ([8]; outpatients on clozapine for at least five years (Lozano et al., 2016)): overall decrease
